Earlier results on three compounds are cited in US9457059B2, “Compositions and methods for treating renal failure” (La Jolla Pharmaceutical Company, priority 2013, dated 2016).

Data set [1] relates to patients with cirrhosis and ascites.
The test system is the same in data set [2]. This is another data set of the same source.

As to “Asp-Arg-Val-Tyr-Ile-His-Pro-Phe [angiotensin II, peptide hormone that regulates blood pressure via vasoconstriction and sodium reabsorption]”, in data set [1] (Laragh et al., versus norepinephrine), the “increase in urine output and sodium excretion compared with norepinephrine” value is recorded as “much more pronounced than those produced by norepinephrine”. In addition, the “natriuresis and urine output” value in data set [1] (patients with cirrhosis and ascites, no renal failure) is “induces marked natriuresis and urine output”. For the same compound, the “increase in sodium excretion compared with norepinephrine” value in data set [1] (second study, Ames et al., versus norepinephrine) was “greater increase in sodium excretion compared to norepinephrine”.
Regarding `C[C@H](CS)C(=O)N1CCC[C@H]1C(=O)O` [captopril], the “sodium excretion and urinary output” value in data set [2] was “significantly reduced both sodium excretion and urinary output”.
With “Asp-Arg-Val-Tyr-Ile-His-Pro-Phe (DRVYIHPF) [angiotensin II, peptide hormone that regulates blood pressure via vasoconstriction and sodium reabsorption]”, in data set [1] (use in patients with cirrhosis and ascites), the tolerability entry is recorded as “well-tolerated”.
